Where two headings read alike, the source gives them in different places.
Assays:
[1] = tested on: yohimbine toxicity; experiment: animal or person; format: in vivo; details: for Therapeutical index (potentiation of yohimbine toxicity): LD50 and ED50 yohimbine toxicity, mice; for ED50: Mus musculus, ip, read-out: Potentiation of yohimbine toxicity ED50
Procedure: (4) Yohimbine toxicity test on mice.
The examination is performed according to Quinton's method. Each group of animals consisting of 10 mice are treated with the compounds to be tested and the vehicle without active agent, respectively. After one hour a sublethal dosage of yohimbine in a volume of 20 ml/kg body weight is administered to the test groups, intraperitoneally. The number of the dead animals is recorded 1 and 24 hours after the administration of yohimbine.

[2] = tested on: Tetrabenazine ptosis; experiment: animal or person; format: in vivo; details: for Therapeutical index (tetrabenazine ptosis antagonism): LD50 and ED50 tetrabenazine ptosis, mice; for ED50: Mus musculus, po, read-out: Tetrabenazine ptosis antagonism ED50
Procedure: (2) Tetrabenazine ptosis antagonism on mice
The tetrabenazine ptosis antagonism of the compounds are tested on groups consisting of 10 mice each. […] 30 minutes after the introduction of the active agent or the vehicle, 50 mg/kg of tetrabenazine (3-isobutyl-9,10-[…]-1,2,3,4,6,7-hexahydrobenzo[a]quinolizine-2-one) are administered, intraperitoneally, and the animals with ptosis are counted 30, 60, 90 and 120 minutes after the administration of the tetrabenazine.
Evaluation: the average ptosis value is calculated in each group, and the deviation from the average obtained for the control group (inhibition) is given in percentage. From the data obtained ED50 values are calculated.

[3] = tested on: Reserpine ptosis; experiment: animal or person; format: in vivo; details: for Therapeutical index (reserpine ptosis antagonism): LD50 and ED50 reserpine ptosis, mice; for ED50: Mus musculus, sc, 1 h, read-out: Reserpine ptosis antagonism ED50
Procedure: (3) Reserpine ptosis antagonism on mice
Each group consisting of 10 mice are treated with 6 mg/kg of reserpine, subcutaneously. […] The animals with ptosis are counted 60 and 120 minutes after the administration of the compounds to be tested. Evaluation is carried out as given under point (2) above.

[4] = in vivo; details: mouse, mice, 7 days observation, Litchfield-Wilcoxon
Procedure: (1) Acute toxicity on mice
The acute toxicity is determined on mice of both sex (CFLP breed, body weight 18 to 22 g). For each dosis 6 animals are employed. The compounds tested are administered orally in a volume of 20 ml/kg body weight. After the administration the animals are observed for 7 days. During this period the animals are fed with standard mouse feed and water ad libitum. The toxicity values are determined according to Litchfield-Wilcoxon's method.

[5] = tested on: pentatetrazole spasm; experiment: animal or person; format: in vivo; details: for Therapeutical index (inhibition of pentatetrazole spasm): LD50 and ED50 pentatetrazole spasm, mice; for ED50: Mus musculus, po, read-out: Inhibition of pentatetrazole spasm ED50
Procedure: (6) Inhibition of pentatetrazole spasm
The test is performed on mice according to a modified method of Banziger and Hane.

[6] = tested on: nicotine lethality; experiment: Inhibition of nicotine spasm / nicotine lethality; format: in vivo, mice; details: for Therapeutical index (inhibition of nicotine lethality): LD50 and ED50 nicotine lethality; for ED50: Mus musculus, read-out: Inhibition of nicotine lethality ED50
Procedure: (5) Inhibition of nicotine spasm
The test is carried out on mice according to Stone.

[7] = tested on: maximum electroshock; experiment: animal or person; format: in vivo; details: for Therapeutical index (inhibition of maximum electroshock): LD50 and ED50 electroshock, mice; for ED50: Mus musculus, po, read-out: Inhibition of maximum electroshock ED50
Procedure: (7) Maximum inhibition of electroshock
The examination is carried out on mice weighing 20 to 25 g according to Swinyard. Electroshocks having the parameters of 50 Hz, 45 mA and 0.4 sec are employed by means of corneal electrodes. The complete inhibition of the tonic spasm of the lower limb extensor is taken as the criterium of the anticonvulsive action.

[8] = tested on: acetic acid writhing; experiment: animal or person; format: in vivo; details: for Therapeutical index (analgesic effect, writhing test): LD50 and ED50 writhing test, mice; for ED50: Mus musculus, ip, read-out: Analgesic effect (writhing test) ED50
Procedure: (9) Analgesic effect on mice (writhing test)
The test is carried out on mice according to the modified method of Newbould. 0.75 percent acetic acid is administered to the animals in a volume of 20 ml/kg, intraperitoneally, and the characteristic "writhing reactions" are counted for a period of 5 minutes, starting from the fifth minute after challenge. […] The inhibition relative to the control group is evaluated in percentage.

[9] = tested on: intestinal peristalsis; experiment: animal or person; format: in vivo; details: for Therapeutical index (inhibition of intestinal peristalsis): LD50 and ED50 intestinal peristalsis, mice; for ED50: Mus musculus, po, read-out: Inhibition of intestinal peristalsis ED50
Procedure: (8) Antiperistaltic effect on mice
The antiperistaltic effect of the compounds is examined on mice weighing 20 to 25 g according to the method of Stickney and co-workers. Each dosis of the compound to be tested is administered, orally, 60 minutes prior to the administration of a 10 percent carbon suspension. […] 20 minutes after the administration of the carbon suspension, the animals are sacrificed, and the length of the entire small intestine as well as that of the small intestine filled with carbon are determined. The inhibition in relation to the control is calculated in percentage. […] From the values thus-transformed ED50 values are calculated.

[10] = mice, oral, 1 hour before 1.4 mg/kg i.v. nicotine

Row | SMILES | Therapeutical index (tetrabenazine ptosis antagonism) [2] | ED50 [2] [mg/kg] | Therapeutical index (reserpine ptosis antagonism) [3] | ED50 [3] [mg/kg] | Therapeutical index (inhibition of pentatetrazole spasm) [5] | ED50 [5] [mg/kg] | Therapeutical index (inhibition of nicotine lethality) ([6]; mice) | LD50 at 168 h ([4]; po) [mg/kg] | Therapeutical index (analgesic effect, writhing test) [8] | ED50 [8] [mg/kg] | Therapeutical index (inhibition of intestinal peristalsis) [9] | ED50 [9] [mg/kg] | also measured
1 | CN(C)CCC=C1c2ccccc2CCc2ccccc21 [Amitriptylin, reference compound] | 18.7 | 12 | 3.5 | 65 |  |  |  |  |  |  |  |  | Therapeutical index (potentiation of yohimbine toxicity) [1]: 18; ED50 [1]: 12.5 mg/kg
2 | Cl.Cl.N=C1SCCN1c1ccc(Cl)cc1N [Compound 1, 3-(2-amino-4-chlorophenyl)-2-iminothiazolidine dihydrochloride] | 39 | 18 | 14 | 50 | 31.8 | 22 | 5.6 |  |  |  |  |  | LD50 at 168 h ([4]; oral): 700 mg/kg; ED50 ([6]; po): 25 mg/kg; Therapeutical index (inhibition of maximum electroshock) [7]: 10; ED50 [7]: 70 mg/kg
3 | Cl.Cl.N=C1SCCN1c1cc(Cl)ccc1N [Compound 2, 3-(2-amino-5-chlorophenyl)-2-iminothiazolidine dihydrochloride] | 32 | 25 |  |  | 10.2 | 78 |  | 800 | 18.6 | 43 |  |  | Therapeutical index (potentiation of yohimbine toxicity) [1]: 16; ED50 [1]: 50 mg/kg
4 | CC1CSC(=N)N1c1ccc(Cl)cc1N.Cl.Cl (stereo not drawn) [Compound 3, 3-(2-amino-4-chlorophenyl)-2-imino-4-methylthiazolidine dihydrochloride] | 67 | 3 | 67 | 3 | 25.6 | 7.8 | 31.3 | 200 |  |  |  |  | ED50 [6, 10]: 6.4 mg/kg; Therapeutical index (inhibition of maximum electroshock) [7]: 14.2; ED50 [7]: 14 mg/kg
5 | N=C1SCCN1c1ccc(C(F)(F)F)cc1N [Compound 4 (diethanesulfonate)] |  |  |  |  |  |  |  |  | 8.1 | 160 | 52 | 25 | 
6 | Cl.N=C1SCCN1c1ccc(C(F)(F)F)cc1N [Compound 4, 3-(2-amino-4-trifluoromethylphenyl)-2-iminothiazolidine hydrochloride] | 32.5 | 40 | 38 | 34 | 8.1 | 160 |  | 1300 |  |  | 19.7 | 66 | 
7 | Cl.N=C1SCCN1c1ccc(Cl)cc1[N+](=O)[O-] [Compound 5, 3-(4-chloro-2-nitrophenyl)-2-iminothiazolidine hydrochloride] |  |  |  |  | 16.6 | 66 | 122 | 1100 |  |  |  |  | ED50 [6, 10]: 9 mg/kg
8 | Cl.N=C1SCCN1c1ccc(C(F)(F)F)cc1[N+](=O)[O-] [Compound 6, 3-(2-nitro-4-trifluoromethylphenyl)-2-iminothiazolidine hydrochloride] |  |  |  |  |  |  |  | 800 |  |  | 100 | 8 | 
9 | CCS(=O)(=O)O.CCS(=O)(=O)O.COc1ccc(N2CCSC2=N)c(N)c1 [Compound 7 (diethanesulfonate), 2-imino-3-(2'-amino-4'-methoxyphenyl)-thiazolidine di(ethanesulfonate)] |  |  |  |  |  |  |  | 2000 |  |  | 10 | 200 | 
10 | COc1ccc(N2CCSC2=N)c(N)c1.Cl.Cl [Compound 7, 3-(2-amino-4-methoxyphenyl)-2-iminothiazolidine dihydrochloride] | 75 | 16 |  |  |  |  |  | 1200 |  |  |  |  | 
11 | N=C1SCCN1c1cc(Cl)ccc1[N+](=O)[O-] [Compound 9, 3-(5-chloro-2-nitrophenyl)-2-iminothiazolidine] |  |  |  |  |  |  |  | 700 | 13 | 54 | 38.9 | 18 | 
12 | N=C1SCCN1c1ccccc1[N+](=O)[O-] [Compound 10, 3-(2-nitrophenyl)-2-iminothiazolidine] |  |  |  |  |  |  | 24 | 700 | 17.5 | 40 | 5 | 140 | ED50 ([6]; po): 50 mg/kg
13 | Br.COc1ccc(N2CCSC2=N)c([N+](=O)[O-])c1 [Compound 11, 3-(4-methoxy-2-nitrophenyl)-2-iminothiazolidine hydrobromide] | 16.3 | 40 | 16.3 | 40 | 19.11 | 34 | 14.4 | 650 |  |  | 6.2 | 105 | ED50 [6, 10]: 45 mg/kg
14 | Cc1ccc(N2CCSC2=N)c(N)c1 [Compound 13, 3-(2-amino-4-methylphenyl)-2-iminothiazolidine] |  |  | 18.5 | 70 |  |  | 130 | 1300 | 8.1 | 160 |  |  | Therapeutical index (potentiation of yohimbine toxicity) [1]: 25; ED50 [1]: 52 mg/kg; ED50 [6, 10]: 10 mg/kg
15 | N=C1SCCN1c1ccc(N)cc1 [Compound 14, 3-(4-aminophenyl)-2-imino-1,3-thiazolidine] |  |  |  |  |  |  |  | 400 |  |  | 4.4 | 50 | Therapeutical index (potentiation of yohimbine toxicity) [1]: 20.0; ED50 [1]: 20 mg/kg
16 | N=C1SCCN1c1ccc(N)cc1[N+](=O)[O-] [Compound 15, 3-(4-amino-2-nitrophenyl)-2-iminothiazolidine] |  |  |  |  |  |  |  | 1200 | 10.4 | 115 | 12 | 130 | 
17 | COc1ccc(Cc2nccc3cc(OC)c(OC)cc23)cc1OC [Papaverine, reference compound] |  |  |  |  |  |  |  |  |  |  | 2.01 | 185 | LD50 at 168 h ([4]; oral): 380 mg/kg
18 | CC(=O)Nc1ccc(O)cc1 [Paracetamol, reference compound] |  |  |  |  |  |  |  |  |  | 180 |  |  | 
19 | OC(CCN1CCCCC1)(c1ccccc1)C1CCCCC1 (stereo not drawn) [Trihexyphenidyl, reference compound] |  |  |  |  |  |  |  |  |  |  |  |  | ED50 [6, 10]: 40 mg/kg
20 | CN1C(=O)OC(C)(C)C1=O [Trimethadion, reference compound] |  |  |  |  |  | 490 |  |  |  |  |  |  | LD50 at 168 h ([4]; oral): 2050 mg/kg; ED50 [7]: 400 mg/kg
